Measured values as given in article PMC3191281 (2011).

Biological target: T1, CK1α (casein kinase Iα) (Homo sapiens, UniProt P48729)
T1 sequence (P48729 2-337): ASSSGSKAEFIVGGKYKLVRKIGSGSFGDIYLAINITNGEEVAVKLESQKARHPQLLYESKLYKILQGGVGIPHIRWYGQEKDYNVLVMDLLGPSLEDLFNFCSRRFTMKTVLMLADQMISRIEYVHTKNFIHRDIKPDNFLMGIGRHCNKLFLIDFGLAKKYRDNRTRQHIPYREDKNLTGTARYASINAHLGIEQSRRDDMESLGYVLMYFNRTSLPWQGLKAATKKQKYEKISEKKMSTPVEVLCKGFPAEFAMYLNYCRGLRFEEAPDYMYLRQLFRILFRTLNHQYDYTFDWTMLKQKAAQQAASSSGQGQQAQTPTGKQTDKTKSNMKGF
Assay: TR-FRET
Type: biochemical

Compound: CCCCCc1cc(/C=C2/N=C(c3ccc[nH]3)C=C2OC)[nH]c1C [NSC 47147]
- IC50: 6 µM
